Data as given in patent publication US8309558B2, “Compounds for the treatment of hepatitis C” (Bristol-Myers Squibb Company, priority 2008, dated 2012).

These compounds were tested on HCV replicon cells (assay: HCV replicon FRET / luciferase assay (96-well plates)). Details: Hepatitis C virus, 24 h, Table 1d (class symbols); HCV replicon; read-out: EC50.
Format: cell-based
From the text: FRET Assay Preparation. To perform the HCV FRET screening assay, 96-well cell culture plates were used. The FRET peptide (Anaspec, Inc.) (Taliani et al., Anal. Biochem. 1996, 240, 60-67) contains a fluorescence donor, EDANS, near one end of the peptide and an acceptor, DABCYL, near the other end. The fluorescence of the peptide is quenched by […] resonance energy transfer (RET) between the donor and the acceptor, but as the NS3 protease cleaves the peptide the products are released from RET quenching and the fluorescence of the donor becomes apparent. The assay reagent was made as follows: 5× cell Luciferase cell culture lysis reagent from Promega (#E153A) diluted to 1× with dH2O, NaCl added to 150 mM final, the FRET peptide diluted to 20 μM final from a 2 mM stock.
To prepare plates, HCV replicon cells, with or without a Renilla luciferase reporter gene, were trypsinized and placed into each well of a 96-well plate with titrated test compounds added in columns 3 through 12; columns 1 and 2 contained a control compound (HCV protease inhibitor), and the bottom row contained cells without compound. The plates were then placed in a CO2 incubator at 37° C.
Assays. Subsequent to addition of the test compounds described above (FRET Assay Preparation), at various times the plate was removed and Alamar blue solution (Trek Diagnostics, #00-100) was added per well as a measure of cellular toxicity. After reading in a Cytoflour 4000 instrument (PE Biosystems), plates were rinsed with PBS and then used for FRET assay by the addition of 30 ul of the FRET peptide assay reagent described above (FRET Assay Preparation) per well. The plate was then placed into the Cytoflour 4000 instrument which had been set to 340 excite/490 emission, automatic mode for 20 cycles and the plate read in a kinetic mode. Typically, the signal to noise using an endpoint analysis after the reads was at least three-fold. Alternatively, after Alamar blue reading, plates were rinsed with PBS, 50 ul of DMEM (high glucose) without phenol red was added and plates were then used for luciferase assay using the Promega Dual-Glo Luciferase Assay System.
Compound analysis was determined by quantification of the relative HCV replicon inhibition and the relative cytotoxicity values. To calculate cytoxicity values, the average Alamar Blue fluorescence signals from the control wells were set as 100% non-toxic. The individual signals in each of the compound test wells were then divided by the average control signal and multiplied by 100% to determine […]. To calculate the HCV replicon inhibition values, an average background value was obtained from the two wells containing the highest amount of HCV protease inhibitor at the end of the assay period. These numbers were similar to those obtained from naïve Huh-7 cells.
The background numbers were then subtracted from the average signal obtained from the control wells and this number was used as 100% activity. The individual signals in each of the compound test wells were then divided by the averaged control values after background subtraction and multiplied by 100% to determine percent activity. EC50 values for a protease inhibitor titration were calculated as the concentration which caused a 50% reduction in FRET or luciferase activity. The two numbers generated for the compound plate, percent cytoxicity and percent activity were used to determine compounds of interest for further analysis.

SMILES | EC50 [nM]
CNC(=O)c1c(-c2ccc(F)cc2)oc2ccc(-c3cc(C(=O)NC4(c5ccccn5)CC4)c(OCC#N)cc3C)cc12 | 1 to 250
CNC(=O)c1c(-c2ccc(F)cc2)oc2ccc(-c3cc(C(=O)NC4(c5cncnc5)CC4)c(OC)cc3C)cc12 | 1 to 250
CCCCOc1cc(C)c(-c2ccc3oc(-c4ccc(F)cc4)c(C(=O)NC)c3c2)cc1C(=O)NC1(c2ccccn2)CC1 | 1 to 250
CNC(=O)c1c(-c2ccc(F)cc2)oc2ccc(-c3cc(C(=O)NC4(c5ccccn5)CC4)c(OCCC(C)C)cc3C)cc12 | 1 to 250
CNC(=O)c1c(-c2ccc(F)cc2)oc2ccc(-c3cc(C(=O)NC4(c5ccccn5)CC4)c(OCCN(C)C)cc3C)cc12 | 1 to 250
CNC(=O)c1c(-c2ccc(F)cc2)oc2ccc(-c3cc(C(=O)NC4(c5ccccn5)CC4)c(OCCCN(C)C)cc3C)cc12 | 1 to 250
CNC(=O)c1c(-c2ccc(F)cc2)oc2ccc(-c3cc(C(=O)NC4(c5ccccn5)CC4)c(OC4CCC4)cc3C)cc12 | 1 to 250
CNC(=O)c1c(-c2ccc(F)cc2)oc2ccc(-c3cc(C(=O)NC4(c5ccccn5)CC4)c(OC4CCCCC4)cc3C)cc12 | 1 to 250
CNC(=O)c1c(-c2ccc(F)cc2)oc2ccc(-c3cc(C(=O)NC4(c5ccccn5)CC4)c(OCCCOC)cc3C)cc12 | 1 to 250
CNC(=O)c1c(-c2ccc(F)cc2)oc2ccc(-c3cc(C(=O)NC4(c5ccccn5)CC4)c(OCCC4CC4)cc3C)cc12 | 1 to 250
CNC(=O)c1c(-c2ccc(F)cc2)oc2ccc(-c3cc(C(=O)NC4(c5ccccn5)CC4)c(OCc4ccccc4)cc3C)cc12 | 1 to 250
CNC(=O)c1c(-c2ccc(F)cc2)oc2ccc(-c3cc(C(=O)NC4(c5ccccn5)CC4)c(OCc4ccccc4Cl)cc3C)cc12 | 1 to 250
CNC(=O)c1c(-c2ccc(F)cc2)oc2ccc(-c3cc(C(=O)NC4(c5ccccn5)CC4)c(OCc4cccc(Cl)c4)cc3C)cc12 | 1 to 250
CNC(=O)c1c(-c2ccc(F)cc2)oc2ccc(-c3cc(C(=O)NC4(c5ccccn5)CC4)c(OCc4ccc(Cl)cc4)cc3C)cc12 | 1 to 250
CNC(=O)c1c(-c2ccc(F)cc2)oc2ccc(-c3cc(C(=O)NC4(c5ccccn5)CC4)c(OCCc4ccccc4)cc3C)cc12 | 1 to 250
CNC(=O)c1c(-c2ccc(F)cc2)oc2ccc(-c3cc(C(=O)NC4(c5ccccn5)CC4)c(OCCc4ccc(OC)cc4)cc3C)cc12 | 1 to 250
CNC(=O)c1c(-c2ccc(F)cc2)oc2ccc(-c3cc(C(=O)NC4(c5ccccn5)CC4)c(OCCc4ccc(N(C)C)cc4)cc3C)cc12 | 1 to 250
CNC(=O)c1c(-c2ccc(F)cc2)oc2ccc(-c3cc(C(=O)NC4(c5ccccn5)CC4)c(OC4CCOCC4)cc3C)cc12 | 1 to 250
CNC(=O)c1c(-c2ccc(F)cc2)oc2ccc(-c3cc(C(=O)NC4(c5ccccn5)CC4)c(OCc4ccccn4)cc3C)cc12 | 1 to 250
CNC(=O)c1c(-c2ccc(F)cc2)oc2ccc(-c3cc(C(=O)NC4(c5ccccn5)CC4)c(OCc4cccnc4)cc3C)cc12 | 1 to 250

SMILES | EC50 [nM]
CNC(=O)c1c(-c2ccc(F)cc2)oc2ccc(-c3cc(C(=O)NC4(c5ccccn5)CC4)c(OCC4CCOC4)cc3C)cc12 (stereo not shown) | 1 to 250
CNC(=O)c1c(-c2ccc(F)cc2)oc2ccc(-c3cc(C(=O)NC4(c5ccccn5)CC4)c(OCCn4ccnc4)cc3C)cc12 | 1 to 250
CNC(=O)c1c(-c2ccc(F)cc2)oc2ccc(-c3cc(C(=O)NC4(c5ccccn5)CC4)c(OCCN4CCN(C)CC4)cc3C)cc12 | 1 to 250
CNC(=O)c1c(-c2ccc(F)cc2)oc2ccc(-c3cc(C(=O)NC4(c5ccccn5)CC4)c(OCc4ccncc4)cc3C)cc12 | 1 to 250
CNC(=O)c1c(-c2ccc(F)cc2)oc2ccc(-c3cc(C(=O)NC4(c5ncoc5C)CC4)ccc3C)cc12 | 1 to 250
CNC(=O)c1c(-c2ccc(F)cc2)oc2ccc(-c3cc(C(=O)NC4(c5ccccn5)CC4)c(OCCN4CCOCC4)cc3C)cc12 | 1 to 250
CNC(=O)c1c(-c2ccc(F)cc2)oc2ccc(-c3cc(C(=O)NC4(c5ccccn5)CC4)c(OCC4CCOCC4)cc3C)cc12 | 1 to 250
CNC(=O)c1c(-c2ccc(F)cc2)oc2ccc(-c3cc(C(=O)NC4(c5ocnc5C)CC4)ccc3C)cc12 | 1 to 250
CNC(=O)c1c(-c2ccc(F)cc2)oc2ccc(-c3cc(C(=O)NC4(c5nc(C)cc(C)n5)CC4)c(OC)cc3C)cc12 | 1 to 250
CNC(=O)c1c(-c2ccc(F)cc2)oc2ccc(-c3cc(C(=O)NC4(c5cnccn5)CC4)ccc3C)cc12 | 1 to 250
CNC(=O)c1c(-c2ccc(F)cc2)oc2ccc(-c3cc(C(=O)NC4(c5nc(C)cc(C)n5)CC4)ccc3C)cc12 | 1 to 250
CNC(=O)c1c(-c2ccc(F)cc2)oc2ccc(-c3cc(C(=O)NC4(c5nccc(C)n5)CC4)ccc3C)cc12 | 1 to 250
CNC(=O)c1c(-c2ccc(F)cc2)oc2ccc(-c3cc(C(=O)NC4(c5ncc(C)cn5)CC4)ccc3C)cc12 | 1 to 250
CNC(=O)c1c(-c2ccc(F)cc2)oc2ccc(-c3cc(C(=O)NC4(c5ncc(F)cn5)CC4)ccc3C)cc12 | 1 to 250
CNC(=O)c1c(-c2ccc(F)cc2)oc2ccc(-c3cc(C(=O)NC4(c5ccncn5)CC4)c(OC)cc3C)cc12 | 1 to 250
CNC(=O)c1c(-c2ccc(F)cc2)oc2ccc(-c3cc(C(=O)NC4(c5nccc(C)n5)CC4)c(OC)cc3C)cc12 | 1 to 250
CNC(=O)c1c(-c2ccc(F)cc2)oc2ccc(-c3cc(C(=O)NC4(c5ncc(F)cn5)CC4)c(OC)cc3C)cc12 | 1 to 250
CNC(=O)c1c(-c2ccc(F)cc2)oc2ccc(-c3cc(C(=O)NC4(c5ccnnc5)CC4)ccc3C)cc12 | 1 to 250
CNC(=O)c1c(-c2ccc(F)cc2)oc2ccc(-c3cc(C(=O)NC4(c5ncc(C)cn5)CC4)c(OC)cc3C)cc12 | 1 to 250
CNC(=O)c1c(-c2ccc(F)cc2)oc2ccc(-c3cc(C(=O)NC4(c5nccc(C)n5)CC4)c(OC)cc3C)c(F)c12 | 1 to 250

SMILES | EC50 [nM]
CNC(=O)c1c(-c2ccc(F)cc2)oc2ccc(-c3cc(C(=O)NC4(c5ncc(C)cn5)CC4)c(OC)cc3C)c(F)c12 | 1 to 250
CNC(=O)c1c(-c2ccc(F)cc2)oc2ccc(-c3cc(C(=O)NC4(c5cnccn5)CC4)c(OC)cc3C)c(F)c12 | 1 to 250
CNC(=O)c1c(-c2ccc(F)cc2)oc2ccc(-c3cc(C(=O)NC4(c5ccnnc5)CC4)c(OC)cc3C)cc12 | 1 to 250
CNC(=O)c1c(-c2ccc(F)cc2)oc2ccc(-c3cc(C(=O)NC4(c5ccncn5)CC4)c(OC)cc3C)c(F)c12 | 1 to 250
CNC(=O)c1c(-c2ccc(F)cc2)oc2ccc(-c3cc(C(=O)NC4(c5nc(C)cc(C)n5)CC4)c(OC)cc3C)c(F)c12 | 1 to 250
CNC(=O)c1c(-c2ccc(F)cc2)oc2ccc(-c3cc(C(=O)NC(C)(C)C)c(OC)cc3OCC(N)=O)cc12 | 1 to 250
CNC(=O)c1c(-c2ccc(F)cc2)oc2ccc(-c3cc(C(=O)NC4(c5cccnn5)CC4)c(OC)cc3C)cc12 | 1 to 250
CNC(=O)c1c(-c2ccc(F)cc2)oc2ccc(-c3cc(C(=O)NC4(c5cnccn5)CC4)ccc3C)c(F)c12 | 1 to 250
CNC(=O)c1c(-c2ccc(F)cc2)oc2ccc(-c3cc(C(=O)NC4(c5ccncn5)CC4)ccc3C)c(F)c12 | 1 to 250
CNC(=O)c1c(-c2ccc(F)cc2)oc2ccc(-c3cc(C(=O)NC4(c5cccnn5)CC4)ccc3C)c(F)c12 | 1 to 250
CNC(=O)c1c(-c2ccc(F)cc2)oc2ccc(-c3cc(C(=O)NC4(c5cccnn5)CC4)c(OC)cc3C)c(F)c12 | 1 to 250
CNC(=O)c1c(-c2ccc(F)cc2)oc2ccc(-c3cc(C(=O)NC4(c5ccnnc5)CC4)ccc3C)c(F)c12 | 1 to 250
CNC(=O)c1c(-c2ccc(F)cc2)oc2ccc(-c3cc(C(=O)NC4(c5nc(C)cc(C)n5)CC4)ccc3C)c(F)c12 | 1 to 250
CNC(=O)c1c(-c2ccc(F)cc2)oc2ccc(-c3cc(C(=O)NC4(c5ncc(C)cn5)CC4)ccc3C)c(F)c12 | 1 to 250
CNC(=O)c1c(-c2ccc(F)cc2)oc2ccc(-c3cc(C(=O)NC4(c5cccnn5)CC4)ccc3C)cc12 | 1 to 250
CNC(=O)c1c(-c2ccc(F)cc2)oc2ccc(-c3cc(C(=O)NC4(c5cnn(C)c5)CC4)ccc3C)cc12 | 1 to 250
CNC(=O)c1c(-c2ccc(F)cc2)oc2ccc(-c3cc(C(=O)NC4(c5nccc(C)n5)CC4)ccc3C)c(F)c12 | 1 to 250
CNC(=O)c1c(-c2ccc(F)cc2)oc2ccc(-c3cc(C(=O)NC4(c5ncc(F)cn5)CC4)ccc3C)c(F)c12 | 1 to 250
